Laboratory results reported in patent publication US12251427B2, “Reduced oxygen carriers and their use for the treatment of carboxyhemoglobinemia” (priority 2016, dated 2025).

B1: rNgb: recombinant neuroglobin, another type of CO scavenging globin protein (protein, UniProt Q9NPG2 1-151, looked up)
Neuroglobin: MERPEPELIRQSWRAVSRSPLEHGTVLFARLFALEPDLLPLFQYNCRQFSSPEDCLSSPEFLDHIRKVMLVIDAAVTNVEDLSSLEEYLASLGRKHRAVGVKLSSFSTVGESLLYMLEKCLGPAFTPATRAAWSQLYGAVVQAMSRGWDGE

Legend:
[1] = LD50 dose in mice (calculated); details: mice of approximately 25 g
[2] = rats; cited from earlier work
[3] = cited from earlier work
[4] = test system: HbCO; assay: HbCO removal in CO poisoned mice (1500 ppm CO, moderate CO poisoning model); assay type: in vivo; details: after 5 minutes of return to normal air, 250 μL of 8-12 mM infused
Method: FIG. 1 is a graph showing the in vivo binding of CO from hemoglobin by recombinant neuroglobin in a mouse model for moderate CO poisoning.
(§1) It was previously shown that exposure of mice to air with 1500 ppm CO gas for an average of 50 minutes caused HbCO levels to increase to 64%+/−1% (PCT Publication No. WO 2014/150413). Prior to exposure, mice were surgically instrumented with placement of femoral artery and vein catheters for blood pressure monitoring, blood sampling and infusions of either recombinant neuroglobin (rNgb), another type of CO scavenging globin protein, or PBS as a control. Mice were infused with 250 μL of 8-12 mM rNgb or PBS within 4 minutes using a Harvard infusion pump. Immediately after infusion and every 5 minutes, 5 μL of blood was collected for measurement of HbCO. […] In particular, after 5 minutes of return to normal air, the HbCO levels dropped by an average of 32.8% in the group that received rNgb versus 13.3% in the group that received PBS (FIG. 1).

[5] = rNgb found in urinary bladder after infusion; assay type: in vivo; details: after 60 minutes, mice sacrificed
Method: as §1

Molecule | LD50 dose in mice [1] | LD50 [2] | predicted human LD50 [3] | drop of HbCO levels [4] | rNgb in urinary bladder [5]
O=S([O-])S(=O)[O-].[Na+].[Na+] [Dithionite, sodium dithionite] | about 62.5 mg | 2500 mg/kg body weight | 500 mg/kg | – | –
B1 | – | – | – | 32.8% | millimolar concentrations
